Data set [1] in a line: Permeability assay (PAMPA). The class given is in vitro ADME. The settings on record: pH 7.4, 25 °C, <10 low, >10 high permeability. The procedure: GCN2 compound permeability was determined by PAMPA and was performed by Pharmaron, Inc. (Beijing, China). All compounds and control stock solutions were prepared in DMSO at a concentration of 10 mM. Testosterone and methotrexate were used as control compounds. Compound stock solutions were diluted with PBS (pH 7.4) to a final concentration of 10 μM. A 1.8% solution (w/v) of lecithin in dodecane was prepared and sonicated to ensure a complete dissolution. 5 μL of the lecithin/dodecane mixture were pipetted into each acceptor plate well (top compartment). Immediately after the application of the artificial membrane (within 10 min), 300 μL of PBS (pH 7.4) solution were added to each well of the acceptor plate. 300 μL of drug-containing solutions were added to each well of the donor plate (bottom compartment) in triplicate. The plate lid was replaced and incubated at 25 °C, 60 rpm for 16 h. After incubation, aliquots of 50 μL from each well of acceptor and donor plate were transferred into a 96-well plate and 200 μL of methanol (containing IS: 100 nM Alprazolam, 200 nM Labetalol and 2 μM Ketoprofen) was added to each well. The plate was vortexed at 750 rpm for 100 s. Samples were centrifuged at 3220g for 20 min. The compound concentrations were determined by LC/MS/MS. The effective permeability (Pe), in units of centimeter per second were calculated using the following equation: logPe=logC×−ln1−drugacceptor/drugequilibrium
For orientation: In PAMPA a lipid-coated filter parts donor from acceptor wells.

Another data set relates to 786-0. The data set can be described thus: NCI-60 one-dose screen. The settings on record: Homo sapiens; Renal 786-0, 10 μM, 48 h; read-out: Percent growth inhibition. It is filed as cell-based. The procedure:
(§1) Compounds 1 and 2 were submitted to the National Cancer Institute NCI-60 Tumor Cell Screening Program (NCI number 800,700 and 800,701, respectively) for evaluation against the 60 cell line NCI panel at a single dose of 10 μM. […] Leukemia and breast cancer cell lines comprised the only cancer groups that were uniformly sensitive to both 1 and 2, with the greatest sensitivity seen in the leukemia SR cell line.
(§2) Compounds 1 and 2 were submitted to the NCI for growth inhibition screening against its panel of 60 cancer cell lines. The NCI screening protocol has extensively been described [[53], [54], [55], [56]]. Briefly, cancerous cell lines were grown in RPMI 1640 medium containing 5% fetal bovine serum and 2 mM L-glutamine. Depending on the doubling time of each cell line, 5000–40,000 cells were seeded in 96-well plates for 24 h. Cells were then treated with compounds 1 or 2 at a concentration of 10 μM and incubated for 48 h at 37 °C in a humidified atmosphere containing 5% CO2. The cells were then fixed and stained with sulforhodamine B (SRB) to determine their viability. The data were analyzed using a program called COMPARE to determine the percent growth inhibition of each compound.

A further data set concerns ACHN. Kind of data set: NCI-60 one-dose screen. It is filed as cell-based. The settings on record: Homo sapiens, Renal ACHN, 48 h, read-out: Percent growth inhibition. The procedure:
as §1, §2

A further data set concerns CAKI-1. The data set can be described thus: NCI-60 one-dose screen. The class given is cell-based. The settings on record: Homo sapiens; Renal CAKI-1, 10 μM, 48 h; read-out: Percent growth inhibition. The procedure: as §1, §2
Another data set relates to CCRF-CEM. The data set can be described thus: NCI-60 one-dose screen. The class given is cell-based. The settings on record: Homo sapiens, Leukemia CCRF-CEM, 48 h, read-out: Percent growth inhibition. The procedure:
as §1, §2

The subject of another data set is EKVX. The data set can be described thus: NCI-60 one-dose screen. The class given is cell-based. The settings on record: Homo sapiens, Non-Small Cell Lung EKVX, 48 h, read-out: Percent growth inhibition. The procedure:
as §1, §2

In the next data set the test system is HCC-2998. Kind of data set: NCI-60 one-dose screen. It is filed as cell-based. The settings on record: Homo sapiens; Colon HCC-2998, 10 μM, 48 h; read-out: Percent growth inhibition. The procedure: as §1, §2
Another data set has as its system HCT-116. Kind of data set: NCI-60 one-dose screen. The settings on record: Homo sapiens, HCT-116, 48 h, Colon HCT-116, 10 μM, read-out: Percent growth inhibition. It is filed as cell-based. The procedure:
as §1, §2

Another data set relates to HOP-92. The data set can be described thus: NCI-60 one-dose screen. The settings on record: Homo sapiens; Non-Small Cell Lung HOP-92, 10 μM, 48 h; read-out: Percent growth inhibition. It is filed as cell-based. The procedure:
as §1, §2

In a further data set the test system is K-562. Kind of data set: NCI-60 one-dose screen. The class given is cell-based. The settings on record: Homo sapiens, K562; Leukemia K-562, 10 μM, 48 h; read-out: Percent growth inhibition. The procedure: as §1, §2
A further data set relates to MDA-MB-231. The data set can be described thus: NCI-60 one-dose screen. The class given is cell-based. The settings on record: Homo sapiens; Breast MDA-MB-231, 10 μM, 48 h; read-out: Percent growth inhibition. The procedure: as §1, §2
For the next data set, the system named is NCI-H460. The data set can be described thus: NCI-60 one-dose screen. The class given is cell-based. The settings on record: Homo sapiens; Non-Small Cell Lung NCI-H460, 10 μM, 48 h; read-out: Percent growth inhibition. The procedure: as §1, §2
A further data set deals with OVCAR-3. The data set can be described thus: NCI-60 one-dose screen. The class given is cell-based. The settings on record: Homo sapiens; Ovarian OVCAR-3, 10 μM, 48 h; read-out: Percent growth inhibition. The procedure: as §1, §2
The next data set concerns OVCAR-5. Kind of data set: NCI-60 one-dose screen. The class given is cell-based. The settings on record: Homo sapiens; Ovarian OVCAR-5, 10 μM, 48 h; read-out: Percent growth inhibition. The procedure: as §1, §2
The subject of the next data set is SF-268. The data set can be described thus: NCI-60 one-dose screen. The class given is cell-based. The settings on record: Homo sapiens; CNS SF-268, 10 μM, 48 h; read-out: Percent growth inhibition. The procedure:
as §1, §2

For the next data set, the system named is SF-295. The data set can be described thus: NCI-60 one-dose screen. It is filed as cell-based. The settings on record: Homo sapiens; CNS SF-295, 10 μM, 48 h; read-out: Percent growth inhibition. The procedure: as §1, §2
Another data set deals with SF-539. The data set can be described thus: NCI-60 one-dose screen. The class given is cell-based. The settings on record: Homo sapiens; CNS SF-539, 10 μM, 48 h; read-out: Percent growth inhibition. The procedure: as §1, §2
The test system of another data set is SK-MEL-28. Kind of data set: NCI-60 one-dose screen. It is filed as cell-based. The settings on record: Homo sapiens; Melanoma SK-MEL-28, 10 μM, 48 h; read-out: Percent growth inhibition. The procedure: as §1, §2
For another data set, the system named is SK-MEL-5. Kind of data set: NCI-60 one-dose screen. The settings on record: Homo sapiens; Melanoma SK-MEL-5, 10 μM, 48 h; read-out: Percent growth inhibition. The class given is cell-based. The procedure:
as §1, §2

The next data set concerns SN12C. Kind of data set: NCI-60 one-dose screen. It is filed as cell-based. The settings on record: Homo sapiens, Renal SN12C, 48 h, read-out: Percent growth inhibition. The procedure: as §1, §2
The next data set has as its system SNB-19. Kind of data set: NCI-60 one-dose screen. The class given is cell-based. The settings on record: Homo sapiens; CNS SNB-19, 10 μM, 48 h; read-out: Percent growth inhibition. The procedure: as §1, §2
Another data set has as its system U251. The data set can be described thus: NCI-60 one-dose screen. The settings on record: Homo sapiens, U-251; CNS U251, 10 μM, 48 h; read-out: Percent growth inhibition. It is filed as cell-based. The procedure: as §1, §2
Another data set deals with UO-31. Kind of data set: NCI-60 one-dose screen. The class given is cell-based. The settings on record: Homo sapiens; Renal UO-31, 10 μM, 48 h; read-out: Percent growth inhibition. The procedure:
as §1, §2

The Papp is a coefficient for how fast a substance crosses the barrier. The low end stands for slow passage, the high end for fast passage. As a reminder, the inhibition is the drop in the measured response relative to a control, in per cent. In [1], `CCn1cc(Nc2ncc3nnn(-c4ccc(C(=O)OC)cc4)c3n2)cn1` [Compound 1, Methyl 4-(5-((1-ethyl-1H-pyrazol-4-yl)amino)-3H-[1,2,3]triazolo[4,5-d]pyrimidin-3-yl)benzoate] displayed a Papp at 16 h, 10 μM of 16 ×10⁻⁶ cm/s. The inhibition at 10 µM was -6.68% in the data set on 786-0; 1.27% in the data set on ACHN; 1.59% with CAKI-1; 39.5% in the data set with CCRF-CEM; -4.33% in the data set on EKVX; -3.6% with HCC-2998. In addition, the inhibition at 10 µM was 42.7% in the data set with HCT-116; -8.76% with HOP-92; 20.9% in the data set with K-562; 0.42% in the data set on MDA-MB-231; 0.26% in the data set on NCI-H460; 8.48% in the data set on OVCAR-3. The inhibition at 10 µM in the data set on OVCAR-5 was -5.43%; with SF-268, 0.6%; in the data set on SF-295, -2.41%; with SF-539, -9.47%; in the data set with SK-MEL-28, -4.08%; in the data set with SK-MEL-5, 40.4%. Also, the inhibition at 10 µM was 1.94% in the data set on SN12C, -9.34% in the data set on SNB-19, 27.6% in the data set on U251 and 10.4% in the data set on UO-31.

`CCOc1ccc(-n2nnc3cnc(Nc4cnn(CC)c4)nc32)cc1` [Compound 2, 3-(4-Ethoxyphenyl)-N-(1-ethyl-1H-pyrazol-4-yl)-3H-[1,2,3]triazolo[4,5-d]pyrimidin-5-amine]: in [1], the Papp at 16 h, 10 μM was found to be 15.1 ×10⁻⁶ cm/s. Also, the inhibition at 10 µM with 786-0 is 21.7%; with ACHN, 17.8%; with CAKI-1, 0.05%; in the data set with CCRF-CEM, 14%; in the data set with EKVX, -5.32%; with HCC-2998, -2.67%. The inhibition at 10 µM in the data set on HCT-116 was 43.7%; in the data set with HOP-92, -5.76%; with K-562 it was 17.2%; in the data set with MDA-MB-231, 7.57%; in the data set on NCI-H460 it was 5.14%; with OVCAR-3 it was 6.71%. The inhibition at 10 µM was -11.8% with OVCAR-5; 12.7% with SF-268; 3.75% in the data set on SF-295; 32% with SF-539; -2.62% in the data set on SK-MEL-28; 26.4% with SK-MEL-5. Further, the inhibition at 10 µM in the data set on SN12C was 12.5%; with SNB-19 it was -0.19%; in the data set on U251, 24.3%; in the data set with UO-31 it was 3.24%.

(Values after article PMC6197744, “Triazolo[4,5-d]pyrimidines as Validated General Control Nonderepressible 2 (GCN2) Protein Kinase Inhibitors Reduce Growth of Leukemia Cells” (Computational and Structural Biotechnology Journal, 2018).)
